Assay results published in patent US20230100235A1, “ANTICANCER AGENT COMPOSITION” (CARNA BIOSCIENCES, INC., priority 2020, published 2023).
pIC50: −log10 of the molar value. Counter-ions that a name gives are not always drawn. Like-named read-outs stand apart in the source and are kept apart here.

Assays:
Format in all cases: cell-based, Human
[1] = tested on: U2932 cells; test: Cell proliferation suppression test of single agents, U2932 (Alamar Blue, 96 h); conditions: read-out: Inhibitory Activity on cell proliferation IC50 U2932
Experimental: Human lymphoma cell line U2932 cells (obtained from DSMZ) were cultured in a 5% CO2 incubator using RPMI medium (Roswell Park Memorial Institute medium, Thermo Fisher Scientific Inc.) containing 10% fetal bovine serum (GE Healthcare) and 1% penicillin streptomycin (NACALAI TESQUE, INC.).
(§1) The OCI-Ly10 or U2932 cells (20000 cells/well) were seeded into 96-well plates (cell plates), to which the test compound diluted with the medium was added at final concentrations of 0.009 nM to 30000 nM (a final DMSO concentration of 0.3%), and after 96 hours of culture, an Alamar Blue reagent (Thermo Fisher Scientific Inc.) was added. After 3 hours, the fluorescence of excitation wavelength 560 nm/fluorescence wavelength 590 nm was measured and IC50 values of inhibitory activity were determined by setting a compound-free and cell-free well as 100% and a compound-free and cell-containing well as 0%.

[2] = tested on: OCI-Ly10 cells; test: Cell proliferation suppression test of single agents, OCI-Ly10 (Alamar Blue, 96 h); conditions: read-out: Inhibitory Activity on cell proliferation IC50 OCI-Ly10
Experimental: Human lymphoma cell line OCI-Ly10 cells (obtained from University Health Network) were cultured in a 5% CO2 incubator using IMDM medium (Iscove's Modified Dulbecco's Medium, Thermo Fisher Scientific Inc.) containing 20% fetal bovine serum (GE Healthcare) and 1% penicillin streptomycin (NACALAI TESQUE, INC.).
as §1

[3] = tested on: BTK-C481S-mutant OCI-Ly10 cells; test: Cell proliferation suppression test of single agents, BTK-C481S-mutant OCI-Ly10; conditions: single agent, read-out: Inhibitory activity on cell proliferation OCI-Ly10 BTK-C481S IC50
Experimental: as §1
BTK-C481S-mutant OCI-Ly10 cells were produced by point mutation knock-in using the CRISPR-Cas9 system. Cas9 protein (Thermo Fisher Scientific Inc.), guide RNA prepared with GeneArt™ Precision gRNA Synthesis Kit (Thermo Fisher Scientific Inc.), and a single-stranded synthetic oligonucleotide to replace 481st cysteine residue of BTK with a serine residue were introduced into OCI-Ly10 cells by an electroporation method. The resulting modified OCI-Ly10 cells were cultured in the presence of ibrutinib, and the grown cells were used as BTK-C481S-mutant OCI-Ly10 cells. Transduction of the mutation was confirmed by genomic DNA and mRNA sequence analysis.
In the same manner as in Test Example 1, IC50 values for each inhibitor single agent were determined.

[4] = Homo sapiens, U2932, single agent
[5] = Homo sapiens, OCI-Ly10, single agent

pIC50 ([2]; single agent) | pIC50 [3] | pIC50 [2, 5] | pIC50 ([3]; Homo sapiens, OCI-Ly10) | SMILES | pIC50 ([1]; single agent) | pIC50 [1, 4]
7.16 | 6.92 |  |  | O=C(c1cc(-c2cc3c(cc2C(=O)N2Cc4ccccc4C[C@H]2CN2CCOCC2)OCO3)n2c1CCCC2)N(c1ccccc1)c1ccc(O)cc1 [Compound S-55746] | 5.87 | 
 |  | 7.17 | 7.02 | CC1(C)CCC(c2ccc(Cl)cc2)=C(CN2CCN(c3ccc(C(=O)NS(=O)(=O)c4ccc(N[C@H](CCN5CCOCC5)CSc5ccccc5)c(S(=O)(=O)C(F)(F)F)c4)cc3)CC2)C1 [navitoclax] |  | 6.41
 |  | 6.82 | 6.82 | COC1=CC(c2cc3ccccc3[nH]2)=N/C1=C\c1[nH]c(C)cc1C [obatoclax mesylate] |  | 6.72
 |  | 8.00 | 7.70 | CC1(C)CCC(CN2CCN(c3ccc(C(=O)NS(=O)(=O)c4ccc(NCC5CCOCC5)c([N+](=O)[O-])c4)c(Oc4cnc5[nH]ccc5c4)c3)CC2)=C(c2ccc(Cl)cc2)C1 [venetoclax] |  | 6.14
